Source: patent publication US9675614B2, “PRMT5 inhibitors and uses thereof” (Epizyme, Inc., priority 2012, dated 2017)

What follows are compounds tested against PRMT5/MEP50 (Homo sapiens (Human), UniProt O14744) (assay: PRMT5 Biochemical Assay (PRMT5/MEP50 enzyme assay on peptide substrate, 3H-SAM Flashplate)). Details: PRMT5/MEP50 biochemical assay; read-out: Biochemical IC50.
Source text: S-adenosylmethionine (SAM), S-adenosylhomocysteine (SAH), bicine, KCl, Tween20, dimethylsulfoxide (DMSO), bovine skin gelatin (BSG), and Tris(2-carboxyethyl)phosphine hydrochloride solution (TCEP) were purchased from Sigma-Aldrich at the highest level of purity possible. ^3H-SAM was purchase from American Radiolabeled Chemicals with a specific activity of 80 Ci/mmol. 384-well streptavidin Flashplates were purchased from PerkinElmer.
Peptide representative of human histone H4 residues 1-15 was synthesized with a C-terminal linker-affinity tag motif and a C-terminal amide cap by 21st Century Biochemicals. […] The sequence was Ac-[…][K-Biot]amide (SEQ ID NO.:3).
Full-length human MEP50 (NM_024102) clone was amplified from a human testis cDNA library incorporating a 5′ sequence encoding a 6-histidine tag (MHHHHHH) (SEQ ID NO.:5) fused directly to Arg 2 of MEP50. The amplified genes were subcloned into pENTR/D/TEV (Life Technologies) and subsequently transferred by Gateway™ attL×attR recombination to pDEST8 baculvirus expression vector (Life Technologies).
Recombinant baculovirus and Baculovirus-Infected Insect Cells (BIIC) were generated according to Bac-to-Bac kit instructions (Life Technologies) and Wasilko, 2006, respectively. Protein over-expression was accomplished by infecting exponentially growing Spodoptera frugiperda (SF9) cell culture at 1.2×10^6 cell/ml with a 5000 fold dilution of BIIC stock. Infections were carried out at 27° C. for 72 hours, harvested by centrifugation, and stored at −80° C. for purification.
Flag-PRMT5/6His-MeP50 was eluted with 300 mM Imidazole in the same buffer. […] Reference: Wasilko, D. J. and S. E. Lee: “TIPS: titerless infected-cells preservation and scale-up” Bioprocess J., 5 (2006), pp. 29-32.
General Procedure for PRMT5/MEP50 Enzyme Assays on Peptide Substrates.
The assays were all performed in a buffer consisting of 20 mM Bicine (pH=7.6), 1 mM TCEP, 0.005% BSG, and 0.002% Tween20, prepared on the day of use. Compounds in 100% DMSO (1 ul) were spotted into a polypropylene 384-well V-bottom plates (Greiner) using a Platemate Plus outfitted with a 384-channel head (Thermo Scientific). DMSO (1 ul) was added to Columns 11, 12, 23, 24, rows A-H for the maximum signal control and 1 ul of SAH, a known product and inhibitor of PRMT5/MEP50, was added to columns 11, 12, 23, 24, rows I-P for the minimum signal control. A cocktail (40 ul) containing the PRMT5/MEP50 enzyme and the peptide was added by Multidrop Combi (Thermo-Fisher). The compounds were allowed to incubate with PRMT5/MEP50 for 30 min at 25 degrees Celsius, then a cocktail (10 ul) containing ^3H-SAM was added to initiate the reaction (final volume=51 ul). The final concentrations of the components were as follows: PRMT5/MEP50 was 4 nM, ^3H-SAM was 75 nM, peptide was 40 nM, SAH in the minimum signal control wells was 100 uM, and the DMSO concentration was 1%. The assays were stopped by the addition of non-radioactive SAM (10 ul) to a final concentration of 600 uM, which dilutes the ^3H-SAM to a level where its incorporation into the peptide substrate is no longer detectable. 50 ul of the reaction in the 384-well polypropylene plate was then transferred to a 384-well Flashplate and the biotinylated peptides were allowed to bind to the streptavidin surface for at least 1 hour before being washed three times with 0.1% Tween20 in a Biotek ELx405 plate washer. The plates were then read in a PerkinElmer TopCount plate reader to measure the quantity of ^3H-labeled peptide bound to the Flashplate surface, measured as disintegrations per minute (dpm) or alternatively, referred to as counts per minute (cpm).
[formula] Where dpm=disintegrations per minute, cmpd=signal in assay well, and min and max are the respective minimum and maximum signal controls.
[formula] Where top and bottom are the normally allowed to float, but may be fixed at 100 or 0 respectively in a 3-parameter fit.

Sequence of PRMT5/MEP50 (O14744 other isoform, or with tags, fused parts or gaps): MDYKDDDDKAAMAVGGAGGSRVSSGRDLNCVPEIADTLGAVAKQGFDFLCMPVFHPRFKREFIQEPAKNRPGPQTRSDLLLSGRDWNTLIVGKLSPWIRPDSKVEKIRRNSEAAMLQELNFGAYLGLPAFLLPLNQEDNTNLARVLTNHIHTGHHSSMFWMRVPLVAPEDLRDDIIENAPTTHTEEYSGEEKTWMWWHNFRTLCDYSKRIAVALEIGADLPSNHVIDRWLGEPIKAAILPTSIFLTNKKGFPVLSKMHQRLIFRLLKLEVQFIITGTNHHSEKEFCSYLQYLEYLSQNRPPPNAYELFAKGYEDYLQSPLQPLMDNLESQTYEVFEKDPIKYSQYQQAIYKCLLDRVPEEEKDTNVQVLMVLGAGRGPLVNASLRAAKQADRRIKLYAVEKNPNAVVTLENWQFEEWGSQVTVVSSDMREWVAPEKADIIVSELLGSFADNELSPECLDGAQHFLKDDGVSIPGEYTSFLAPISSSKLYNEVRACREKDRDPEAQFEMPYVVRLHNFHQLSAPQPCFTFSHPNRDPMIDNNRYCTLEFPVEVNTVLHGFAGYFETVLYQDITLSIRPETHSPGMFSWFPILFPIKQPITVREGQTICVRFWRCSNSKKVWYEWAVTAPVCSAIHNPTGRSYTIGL
Sequence of PRMT5/MEP50 (Q9BQA1 other isoform, or with tags, fused parts or gaps partner): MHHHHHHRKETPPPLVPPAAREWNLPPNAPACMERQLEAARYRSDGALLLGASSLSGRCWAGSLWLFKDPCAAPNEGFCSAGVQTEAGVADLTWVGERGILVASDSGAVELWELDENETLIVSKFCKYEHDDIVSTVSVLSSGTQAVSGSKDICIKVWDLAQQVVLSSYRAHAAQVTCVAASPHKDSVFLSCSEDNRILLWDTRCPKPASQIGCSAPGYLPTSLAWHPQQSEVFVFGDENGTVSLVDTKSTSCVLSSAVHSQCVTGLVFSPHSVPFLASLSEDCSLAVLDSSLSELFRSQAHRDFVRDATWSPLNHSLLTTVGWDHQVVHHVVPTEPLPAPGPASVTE

SMILES | IC50 [nM]
O=C(NCC(O)CN1CCc2ccccc2C1)c1ccc(F)c(NC2CCOCC2)c1 (centres unmarked) [Compound 65] | < 100
O=C(NCC(O)CN1CCc2ccccc2C1)c1ccc(NC2CCOCC2)cc1 (centres unmarked) [Compound 66] | < 100
COc1ccc(C(=O)NCC(O)CN2CCc3ccccc3C2)cc1NC1CCOCC1 (centres unmarked) [Compound 67] | 101 to 1000
O=C(NCC(O)CN1CCc2ccccc2C1)c1ccc2ncccc2c1 (centres unmarked) [Compound 68] | < 100
COCCCNc1cccc(C(=O)NCC(O)CN2CCc3ccccc3C2)c1 (centres unmarked) [Compound 69] | 101 to 1000
COCCCNc1cccc(C(=O)NCC(O)CN2CCc3ccccc3C2)c1 (centres unmarked) [Compound 70] | 101 to 1000
CN(CC(O)CN1CCc2ccccc2C1)C(=O)c1cccc(NC2CCOCC2)c1 (centres unmarked) [Compound 71] | 101 to 1000
COCCNc1cccc(C(=O)NCC(O)CN2CCc3ccccc3C2)c1 (centres unmarked) [Compound 72] | 101 to 1000
O=C(NCC(O)CN1CCc2ccccc2C1)c1cccc(NC2CCOCC2)n1 (centres unmarked) [Compound 73] | < 100
O=C(NCC(O)CN1CCc2ccccc2C1)c1ccnc(NC2CCOCC2)c1 (centres unmarked) [Compound 74] | < 100
O=C(NCC(O)CN1CCc2ccccc2C1)c1cncc(NC2CCOCC2)n1 (centres unmarked) [Compound 75] | 101 to 1000
O=C(NCC(O)CN1CCc2ccccc2C1)c1nccc(NC2CCOCC2)n1 (centres unmarked) [Compound 76] | 101 to 1000
COc1ccc(NC2CCOCC2)cc1C(=O)NCC(O)CN1CCc2ccccc2C1 (centres unmarked) [Compound 77] | < 100
O=C(NCC(O)CN1CCc2ccccc2C1)c1cc(F)cc(NC2CCOCC2)c1 (centres unmarked) [Compound 78] | < 100
O=C(NCC(O)CN1CCc2ccccc2C1)c1cccc(NC2CCOCC2)c1F (centres unmarked) [Compound 79] | < 100
O=C(NC[C@H](O)CN1CCc2ccccc2C1)c1cccc(NC2CCOC2)c1 (some centres unmarked) [Compound 80] | < 100
O=C(NC[C@@H](O)CN1CCc2ccccc2C1)c1cccc(NC2CCOC2)c1 (some centres unmarked) [Compound 81] | < 100
O=C(NC[C@H](O)CN1CCc2ccccc2C1)c1cccc(OC2CCOCC2)c1 [Compound 82] | < 100
O=C(NC[C@@H](O)CN1CCc2ccccc2C1)c1cccc(OC2CCOCC2)c1 [Compound 83] | 101 to 1000
Cc1ccc2cc(C(=O)NCC(O)CN3CCc4ccccc4C3)ccc2n1 (centres unmarked) [Compound 84, N-(3-(3,4-dihydroisoquinolin-2(1H)-yl)-2-hydroxypropyl)-2-methylquinoline-6-carboxamide] | < 100
O=C(NCC(O)CN1CCc2ccccc2C1)c1ccc2nccnc2c1 (centres unmarked) [Compound 85] | 101 to 1000

SMILES | IC50 [nM]
CC1=NN(c2ccc(C(=O)NCC(O)CN3CCc4ccccc4C3)cc2)C(=O)C1 (centres unmarked) [Compound 86] | 101 to 1000
O=C(NCC(O)CN1CCc2ccccc2C1)c1cccc(NCCCO)c1 (centres unmarked) [Compound 87] | 1000 to 10000
O=C(NCC(O)CN1CCc2ccccc2C1)c1ccc2c(c1)OCCN2 (centres unmarked) [Compound 88] | 101 to 1000
O=C1COc2cc(C(=O)NCC(O)CN3CCc4ccccc4C3)ccc2N1 (centres unmarked) [Compound 89] | 101 to 1000
CCN1CCN(Cc2cccc(C(=O)NCC(O)CN3CCc4ccccc4C3)c2)CC1 (centres unmarked) [Compound 90] | < 100
CS(=O)(=O)N1CCN(Cc2cccc(C(=O)NCC(O)CN3CCc4ccccc4C3)c2)CC1 (centres unmarked) [Compound 91] | < 100
O=C(NCC(O)CN1CCc2ccccc2C1)c1cccc(CN2CCN(CC(F)(F)F)CC2)c1 (centres unmarked) [Compound 92] | < 100
O=C(NCC(O)CN1CCc2ccccc2C1)c1cccc(NC2CCNC2)c1 (centres unmarked) [Compound 93] | 101 to 1000
O=C(NCC(O)CN1CCc2ccccc2C1)c1cccc(NC2CCNCC2)c1 (centres unmarked) [Compound 94] | < 100
Cc1ccc(NC2CCOCC2)cc1C(=O)NCC(O)CN1CCc2ccccc2C1 (centres unmarked) [Compound 95] | 101 to 1000
Cc1ccc(NC2CCOC2)cc1C(=O)NCC(O)CN1CCc2ccccc2C1 (centres unmarked) [Compound 96] | < 100
Cc1ccc(NC2COC2)cc1C(=O)NCC(O)CN1CCc2ccccc2C1 (centres unmarked) [Compound 97] | < 100
O=C(NCC(O)CN1CCc2ccccc2C1)c1cccc(NC2CCOCC2O)c1 (centres unmarked) [Compound 98] | < 100
O=C(NCC(O)CN1CCc2ccccc2C1)c1cccc(C2CCOCC2)c1 (centres unmarked) [Compound 99] | < 100
CC(=O)N1CCN(Cc2cccc(C(=O)NCC(O)CN3CCc4ccccc4C3)c2)CC1 (centres unmarked) [Compound 100] | < 100
CC(C)N1CCC(Nc2cccc(C(=O)NCC(O)CN3CCc4ccccc4C3)c2)C1 (centres unmarked) [Compound 101] | < 100
O=C(NCC(O)CN1CCc2ccccc2C1)c1cccc(NC2CCN(CC(F)(F)F)C2)c1 (centres unmarked) [Compound 102] | < 100
CC(C)N1CCC(Nc2cccc(C(=O)NCC(O)CN3CCc4ccccc4C3)c2)CC1 (centres unmarked) [Compound 103] | < 100
O=C(NCC(O)CN1CCc2ccccc2C1)c1ccc(OC2CCNCC2)cc1 (centres unmarked) [Compound 104] | < 100
CN1CCC(Oc2ccc(C(=O)NCC(O)CN3CCc4ccccc4C3)cc2)CC1 (centres unmarked) [Compound 105] | < 100
CC(C)N1CCC(Oc2ccc(C(=O)NCC(O)CN3CCc4ccccc4C3)cc2)CC1 (centres unmarked) [Compound 106] | < 100

SMILES | IC50 [nM]
CC(=O)N1CCC(Oc2ccc(C(=O)NCC(O)CN3CCc4ccccc4C3)cc2)CC1 (centres unmarked) [Compound 107] | < 100
CS(=O)(=O)N1CCC(Oc2ccc(C(=O)NCC(O)CN3CCc4ccccc4C3)cc2)CC1 (centres unmarked) [Compound 108] | < 100
O=C(NCC(O)CN1CCc2ccccc2C1)c1ccc(OC2CCN(CC(F)(F)F)CC2)cc1 (centres unmarked) [Compound 109] | < 100
O=C(NCC(O)CN1CCc2ccccc2C1)c1ccc(-n2cncn2)cc1 (centres unmarked) [Compound 110] | < 100
CN(C[C@H](O)CN1CCc2ccccc2C1)C(=O)c1cccc(NC2CCOCC2)c1 [Compound 111] | < 100
O=C(NCC(O)CN1CCc2ccccc2C1)c1cn[nH]c1-c1ccccc1 (centres unmarked) [Compound 112] | 101 to 1000
O=C(NCC(O)CN1CCc2ccccc2C1)c1cccc(CN2CCN(CCO)CC2)c1 (centres unmarked) [Compound 113] | < 100
COCCN1CCN(Cc2cccc(C(=O)NCC(O)CN3CCc4ccccc4C3)c2)CC1 (centres unmarked) [Compound 114] | < 100
CN1CCN(Cc2cccc(C(=O)NCC(O)CN3CCc4ccccc4C3)c2)C(CO)C1 (centres unmarked) [Compound 115] | < 100
NC(=O)CNCc1cccc(C(=O)NCC(O)CN2CCc3ccccc3C2)c1 (centres unmarked) [Compound 116] | 101 to 1000
CNC(=O)CNCc1cccc(C(=O)NCC(O)CN2CCc3ccccc3C2)c1 (centres unmarked) [Compound 117] | 101 to 1000
CN(C)C(=O)CNCc1cccc(C(=O)NCC(O)CN2CCc3ccccc3C2)c1 (centres unmarked) [Compound 118] | < 100
O=C(NCC(O)CN1CCc2ccccc2C1)c1cccc(OC2CCNC2)c1 (centres unmarked) [Compound 119] | < 100
CC(=O)N1CCC(Nc2cccc(C(=O)NCC(O)CN3CCc4ccccc4C3)c2)C1 (centres unmarked) [Compound 121] | < 100
CS(=O)(=O)N1CCC(Nc2cccc(C(=O)NCC(O)CN3CCc4ccccc4C3)c2)C1 (centres unmarked) [Compound 122] | < 100
CN1CCC(Nc2cccc(C(=O)NCC(O)CN3CCc4ccccc4C3)c2)CC1 (centres unmarked) [Compound 123] | < 100
CC(=O)N1CCC(Nc2cccc(C(=O)NCC(O)CN3CCc4ccccc4C3)c2)CC1 (centres unmarked) [Compound 124] | < 100
CS(=O)(=O)N1CCC(Nc2cccc(C(=O)NCC(O)CN3CCc4ccccc4C3)c2)CC1 (centres unmarked) [Compound 125] | < 100
O=C(NCC(O)CN1CCc2ccccc2C1)c1cccc(NC2CCN(CC(F)(F)F)CC2)c1 (centres unmarked) [Compound 126] | < 100
CC(=O)N1CCC(Nc2ccc(C(=O)NCC(O)CN3CCc4ccccc4C3)cc2)CC1 (centres unmarked) [Compound 127] | < 100
